Source: patent US12187742B2 (XRAD Therapeutics, Inc., priority 2018, dated 2025)
Counter-ions that a name gives are not always drawn.

Assays:
ATM = ATM (Homo sapiens (Human), UniProt Q13315); experiment: ATM in Cell Western Assay (pKAP1 in etoposide-treated MCF-7 cells); assay type: cell-based; conditions: MCF-7 cells, etoposide 100 μM, 1 hr, pKAP1 readout
In short: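 After paraformaldehyde fixation and Triton X-100 permeabilization, immunostained plates were read by infrared scanning (ODYSSEY CLx). Compound was given as 10 doses, 3-fold dilutions from a 1 μM final top concentration.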

DNA-PK = DNA-PK (Homo sapiens (Human), UniProt P78527); experiment: DNA-PK Enzyme-Linked Immunosorbent Assay (phosphorylation of GST-p53 (1-101) peptide); assay type: biochemical; conditions: ELISA, ATP 20 μM
In short: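 Inhibition measured by 450 nm absorbance after HRP/TMB detection of phospho-Ser15 on immobilized GST-p53 (1-101). The kinase reaction used 0.1 μg/mL DNA-PK and 20 μM ATP, 1 h at 25 °C. Ten 3-fold compound dilutions, top final concentration 100 nM.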

Chain of ATM (Q13315 whole entry): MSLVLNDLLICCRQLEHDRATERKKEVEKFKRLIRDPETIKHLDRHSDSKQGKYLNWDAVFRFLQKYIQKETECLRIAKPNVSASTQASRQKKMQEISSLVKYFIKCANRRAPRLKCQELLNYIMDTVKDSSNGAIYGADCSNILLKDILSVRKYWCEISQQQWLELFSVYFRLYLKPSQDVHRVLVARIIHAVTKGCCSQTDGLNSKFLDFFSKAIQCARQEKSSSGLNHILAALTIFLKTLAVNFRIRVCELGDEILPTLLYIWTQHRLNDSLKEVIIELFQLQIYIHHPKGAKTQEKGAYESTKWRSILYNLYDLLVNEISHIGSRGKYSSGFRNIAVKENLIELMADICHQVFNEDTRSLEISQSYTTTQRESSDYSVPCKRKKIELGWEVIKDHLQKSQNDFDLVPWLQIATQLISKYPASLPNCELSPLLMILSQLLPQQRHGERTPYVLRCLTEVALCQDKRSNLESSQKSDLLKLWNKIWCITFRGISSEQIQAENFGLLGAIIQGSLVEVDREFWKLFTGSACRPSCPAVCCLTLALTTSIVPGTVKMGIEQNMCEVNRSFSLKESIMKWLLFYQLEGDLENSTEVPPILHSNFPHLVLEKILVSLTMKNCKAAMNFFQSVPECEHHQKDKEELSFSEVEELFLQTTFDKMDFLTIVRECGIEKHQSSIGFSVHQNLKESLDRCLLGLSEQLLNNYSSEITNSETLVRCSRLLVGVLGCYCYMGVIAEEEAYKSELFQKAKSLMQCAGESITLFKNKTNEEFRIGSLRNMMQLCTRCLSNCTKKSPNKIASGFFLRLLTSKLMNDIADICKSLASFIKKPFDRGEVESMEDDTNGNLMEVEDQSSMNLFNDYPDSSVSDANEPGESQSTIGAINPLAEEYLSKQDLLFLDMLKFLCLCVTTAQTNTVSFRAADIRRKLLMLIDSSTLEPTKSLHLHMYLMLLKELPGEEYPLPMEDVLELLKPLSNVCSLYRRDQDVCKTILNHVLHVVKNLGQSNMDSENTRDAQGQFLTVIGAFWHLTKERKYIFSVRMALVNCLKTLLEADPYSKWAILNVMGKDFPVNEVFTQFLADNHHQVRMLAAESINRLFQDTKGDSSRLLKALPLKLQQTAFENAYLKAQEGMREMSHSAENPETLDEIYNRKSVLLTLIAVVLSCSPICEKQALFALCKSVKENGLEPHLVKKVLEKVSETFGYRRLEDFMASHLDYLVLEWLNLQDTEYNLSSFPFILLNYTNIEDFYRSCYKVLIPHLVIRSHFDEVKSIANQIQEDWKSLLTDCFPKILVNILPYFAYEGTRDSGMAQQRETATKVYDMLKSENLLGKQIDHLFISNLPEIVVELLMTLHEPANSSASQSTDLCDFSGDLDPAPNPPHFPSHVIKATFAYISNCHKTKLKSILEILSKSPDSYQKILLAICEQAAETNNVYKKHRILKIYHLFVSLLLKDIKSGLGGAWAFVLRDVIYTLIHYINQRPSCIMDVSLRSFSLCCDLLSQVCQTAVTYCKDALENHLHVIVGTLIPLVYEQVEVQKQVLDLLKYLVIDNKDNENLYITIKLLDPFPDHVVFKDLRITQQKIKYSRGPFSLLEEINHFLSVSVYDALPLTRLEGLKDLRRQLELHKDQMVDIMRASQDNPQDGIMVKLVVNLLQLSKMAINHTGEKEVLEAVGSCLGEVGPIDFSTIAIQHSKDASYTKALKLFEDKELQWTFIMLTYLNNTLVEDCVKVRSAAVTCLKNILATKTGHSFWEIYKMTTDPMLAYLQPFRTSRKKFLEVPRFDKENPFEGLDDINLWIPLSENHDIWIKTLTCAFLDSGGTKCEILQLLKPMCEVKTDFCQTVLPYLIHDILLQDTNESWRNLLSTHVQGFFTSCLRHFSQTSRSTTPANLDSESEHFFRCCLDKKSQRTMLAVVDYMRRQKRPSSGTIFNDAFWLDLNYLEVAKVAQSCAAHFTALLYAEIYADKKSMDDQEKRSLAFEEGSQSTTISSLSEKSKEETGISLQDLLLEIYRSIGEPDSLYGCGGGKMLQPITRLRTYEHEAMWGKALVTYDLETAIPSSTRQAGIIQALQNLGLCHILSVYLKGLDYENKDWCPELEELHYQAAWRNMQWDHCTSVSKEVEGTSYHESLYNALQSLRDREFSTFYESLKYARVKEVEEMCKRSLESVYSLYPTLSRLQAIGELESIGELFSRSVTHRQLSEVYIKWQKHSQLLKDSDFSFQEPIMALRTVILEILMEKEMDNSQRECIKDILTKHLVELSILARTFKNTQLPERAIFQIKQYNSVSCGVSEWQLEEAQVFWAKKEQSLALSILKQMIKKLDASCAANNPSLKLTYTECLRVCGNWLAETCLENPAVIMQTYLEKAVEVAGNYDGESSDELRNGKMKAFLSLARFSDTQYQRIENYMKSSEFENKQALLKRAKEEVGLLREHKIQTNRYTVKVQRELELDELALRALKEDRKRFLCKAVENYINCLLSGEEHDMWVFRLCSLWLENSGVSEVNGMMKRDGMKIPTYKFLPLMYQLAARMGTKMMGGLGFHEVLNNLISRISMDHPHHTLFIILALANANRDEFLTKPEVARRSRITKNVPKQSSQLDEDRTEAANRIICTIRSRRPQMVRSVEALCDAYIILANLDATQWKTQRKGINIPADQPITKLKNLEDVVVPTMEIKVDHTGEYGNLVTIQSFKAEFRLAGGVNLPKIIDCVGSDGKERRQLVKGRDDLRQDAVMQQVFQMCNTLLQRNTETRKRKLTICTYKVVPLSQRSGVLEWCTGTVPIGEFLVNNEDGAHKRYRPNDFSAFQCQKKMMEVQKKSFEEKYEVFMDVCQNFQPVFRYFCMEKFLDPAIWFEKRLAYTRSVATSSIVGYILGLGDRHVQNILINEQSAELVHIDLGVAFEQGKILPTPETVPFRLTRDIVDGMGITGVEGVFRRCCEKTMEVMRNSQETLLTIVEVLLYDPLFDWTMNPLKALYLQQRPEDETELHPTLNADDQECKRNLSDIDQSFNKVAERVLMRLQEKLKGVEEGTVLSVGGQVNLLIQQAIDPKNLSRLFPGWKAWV

Structure (SMILES) | IC50 (ATM) | IC50 (DNA-PK)
CN1C(=O)C2(CCC2)c2c1cnc1ccc(-c3cnc(N4CC(N(C)C)C4)c(NS(=O)(=O)C4CC4)c3)cc21 [Example 320, N-(2-(3-(Dimethylamino)azetidin-1-yl)-5-(3′-methyl-2′-oxo-2′,3′-dihydrospiro[cyclobulane-1,1′-pyrrolo[2,3-c]quinolin]-8′-yl)pyridin-3-yl)cyclopropanesulfonamide] | 1 to 100 nM | 1 to 100 nM
Cc1ccc(S(=O)(=O)Nc2cc(-c3cc4c5c(cnc4cc3F)N(C)C(=O)C53CCC3)cnc2N2CC(N(C)C)C2)cc1 [Example 323, N-(2-(3-(Dimethylamino)azetidin-1-yl)-5-(7′-fluoro-3′-methyl-2′-oxo-2′,3′-dihydrospiro[cyclobutane-1,1′-pyrrolo[2,3-c]quinolin]-8′-yl)pyridin-3-yl)-4-methylbenzenesulfonamide hydrochloride] | 1 to 100 nM | 1 to 100 nM
CN1C(=O)C2(CCC2)c2c1cnc1cc(F)c(-c3cnc(N4CC(N(C)C)C4)c(NS(=O)(=O)c4ccccc4)c3)cc21 [Example 324, N-(2-(3-(Dimethylamino)azetidin-1-yl)-5-(7′-fluoro-3′-methyl-2′-oxo-2′,3′-dihydrospiro[cyclobutane-1,1′-pyrrolo[2,3-c]quinolin]-8′-yl)pyridin-3-yl)benzenesulfonamide hydrochloride] | 1 to 100 nM | 1 to 100 nM
CC1CCC12C(=O)N(C)c1cnc3ccc(-c4cnc(N5CC(N(C)C)C5)c(NS(C)(=O)=O)c4)cc3c12 (centres unmarked) [Example 325, N-(5-(2,3′-Dimethyl-2′-oxo-2′,3′-dihydrospiro[cyclobutane-1,1′-pyrrolo[2,3-c]quinolin]-8′-yl)-2-(3-(dimethylamino)azetidin-1-yl)pyridin-3-yl)methanesulfonamideformate] | 1 to 100 nM | 1 to 100 nM
CCN(C)C1CN(c2ncc(-c3ccc4ncc5c(c4c3)C3(CCC3)C(=O)N5C)cc2NS(C)(=O)=O)C1 [Example 326, N-(2-(3-(Ethyl(methyl)amino)azetidin-1-yl)-5-(3′-methyl-2′-oxo-2′,3′-dihydrospiro[cyclobutane-1,1′-pyrrolo[2,3-c]quinolin]-8′-yl)pyridin-3-yl)methanesulfonamide hydrochloride] | 1 to 100 nM | 0.5 to 1 nM
CNC1CN(c2ncc(-c3ccc4ncc5c(c4c3)C3(CCC3)C(=O)N5C)cc2NS(C)(=O)=O)C1 [Example 329, N-(5-(3′-Methyl-2′-oxo-2′,3′-dihydrospiro[cyclobutane-1,1′-pyrrolo[2,3-c]quinolin]-8′-yl)-2-(3-(methylamino)azetidin-1-yl)pyridin-3-yl) methanesulfonamide formate] | 1 to 100 nM | < 0.5 nM
CNC1CN(c2ncc(-c3cc4c5c(cnc4cc3F)N(C)C(=O)C53CCC3)cc2NS(C)(=O)=O)C1 [Example 330, N-(5-(7′-Fluor-3′-methyl-2′-oxo-2′,3′-dihydrospiro [cyclobutane-1,1-pyrrolo[2,3-c]quinolin]-8′-yl)-2-(3-(methylamino)azetidin-1-yl)pyridin-3-yl) methanesulfonamide formate] | 1 to 100 nM | 0.5 to 1 nM
CCNC1CN(c2ncc(-c3cc4c5c(cnc4cc3F)N(C)C(=O)C53CCC3)cc2NS(C)(=O)=O)C1 [Example 331, N-(2-(3-(Ethylamino)azetidin-1-yl)-5-(7′-fluoro-3′-methyl-2′-oxo-2′,3′-dihydrospiro [cyclobutane-1,1′-pyrrolo [2,3-c]quinolin]-8′-yl)pyridin-3-yl)methanesulfonamide] | 1 to 100 nM | 0.5 to 1 nM
CNC1CN(c2ncc(-c3cc4c5c(cnc4cc3F)N(C)C(=O)C53CCC3)cc2NS(=O)(=O)N(C)C)C1 [Example 332, 8′-{5-[(Dimethylsulfamoyl)amino]-6-[3-(methylamino)azetidin-1-yl]pyridin-3-yl}-7′-fluoro-3′-methyl-2′,3′-dihydrospiro[cyclobutane-1,1′-pyrrolo[2,3-c]quinoline]-2′-one] | 1 to 100 nM | 1 to 100 nM

Next, values leading:

IC50 (ATM) | IC50 (DNA-PK) | Structure (SMILES)
1 to 100 nM | 1 to 100 nM | CN1C(=O)C2(CCC2)c2c1cnc1cc(F)c(-c3cnc(OCCCN4CCC(F)CC4)c(NS(C)(=O)=O)c3)cc21 [Example 297, N-(5-(7′-Fluoro-3′-methyl-2′-oxo-2′,3′-dihydrospiro[cyclobutane-1,1′-pyrrolo[2,3-c]quinolin]-8′-yl)-2-(3-(4-fluoropiperidin-1-yl)propoxy)pyridin-3-yl)methanesulfonamide hydrochloride]
1 to 100 nM | 1 to 100 nM | CN1CCN(CCCOc2ncc(-c3ccc4ncc5c(c4c3)C3(CCC3)C(=O)N5C)cc2NS(C)(=O)=O)CC1 [Example 299, N-(5-(3′-Methyl-2′-oxo-2′,3′-dihydrospiro[cyclobutane-1,1′-pyrrolo[2,3-c]quinolin]-8′-yl)-2-(3-(4-methylpiperazin-1-yl)propoxy)pyridin-3-yl)methanesulfonamide]
1 to 100 nM | < 0.5 nM | CN1C(=O)C2(CCC2)c2c1cnc1ccc(-c3cnc(OCCCN4CCCCC4)c(NS(=O)(=O)C(F)F)c3)cc21 [Example 302, 1,1-Difluoro-N-(5-(3-methyl-2′-oxo-2′,3′-dihydrospiro[cyclobutane-1,1′-pyrrolo[2,3-c]quinolin]-8-yl)-2-(3-(piperidin-1-yl)propoxy)pyridin-3-yl)methanesulfonamide]
1 to 100 nM | 0.5 to 1 nM | CN1C(=O)C2(CCC2)c2c1cnc1ccc(-c3cnc(OCCCN4CCOCC4)c(NS(=O)(=O)N(C)C)c3)cc21 [Example 304, 8′-{5-[(Dimethylsulfamoyl)amino]-6-[3-(morpholin-4-yl)propoxy]pyridin-3-yl)-3′-methyl-2′,3′-dihydrospiro[cyclobutane-1,1′-pyrrolo[2,3-c]quinoline]-2′-one]
1 to 100 nM | 1 to 100 nM | CN1C(=O)C2(CCC2)c2c1cnc1ccc(-c3cnc(OCCCN4CCOCC4)c(NS(C)(=O)=O)c3)cc21 [Example 305, N-(5-(3′-Methyl-2′-oxo-2′,3′-dihydrospiro[cyclobutane-1,1′-pyrrolo[2,3-c]quinolin]-8′-yl)-2-(3-morpholinopropoxy)pyridin-3-yl)methanesulfonamide]
1 to 100 nM | 1 to 100 nM | CN1C(=O)C2(CCC2)c2c1cnc1ccc(-c3cnc(OCCCN4CCOCC4)c(NS(=O)(=O)C4CC4)c3)cc21 [Example 306, N-(5-(3′-Methyl-2′-oxo-2′,3′-dihydrospiro[cyclobutane-1,1′-pyrrolo[2,3-c]quinolin]-8′-yl)-2-(3-morpholinopropoxy)pyridin-3-yl)cyclopropanesulfonamide]
1 to 100 nM | 0.5 to 1 nM | CN1C(=O)C2(CCC2)c2c1cnc1ccc(-c3cnc(OCCNC(C)(C)C)c(NS(C)(=O)=O)c3)cc21 [Example 309]
1 to 100 nM | 1 to 100 nM | COC1CN(S(=O)(=O)Nc2cc(-c3cc4c5c(cnc4cc3F)N(C)C(=O)C53CCC3)cnc2N2CC(N(C)C)C2)C1 [Example 311, N-(2-(3-(Dimethylamino)azetidin-1-yl)-5-(7′-fluoro-3′-methyl-2′-oxo-2′,3′-dihydrospiro[cyclobulane-1,1′-pyrrolo[2,3-c]quinolin]-8′-yl)pyridin-3-yl)-3-methoxyazetidine-1-sulfonamide formate]
1 to 100 nM | 1 to 100 nM | CN1C(=O)C2(CCC2)c2c1cnc1cc(F)c(-c3cnc(N4CC(N(C)C)C4)c(NS(=O)(=O)c4ccc(F)cc4F)c3)cc21 [Example 315, N-(2-(3-(Dimethylamino)azetidin-1-yl)-5-(7′-fluoro-3′-methyl-2′-oxo-2′,3′-dihydrospiro[cyclobulane-1,1′-pyrrolo[2,3-c]quinolin]-8′-yl)pyridin-3-yl)-2,4-difluorobenzenesulfonamide hydrochloride]
1 to 100 nM | 1 to 100 nM | CN1C(=O)C2(CCC2)c2c1cnc1cc(F)c(-c3cnc(N4CC(N(C)C)C4)c(NS(=O)(=O)N(C)C)c3)cc21 [Example 316, 8′-{6-[3-(Dimethylamino)azetidin-1-yl]-5-[(dimethylsulfamoyl)amino]pyridin-3-yl}-7′-fluoro-3′-methyl-2′,3′-dihydrospiro[cyclobulane-1,1′-pyrrolo[2,3-c]quinoline]-2′-one hydrochloride]
1 to 100 nM | 1 to 100 nM | CN1C(=O)C2(CCC2)c2c1cnc1cc(F)c(-c3cnc(N4CC(N(C)C)C4)c(NS(C)(=O)=O)c3)cc21 [Example 317, N-(2-(3-(Dimethylamino)azetidin-1-yl)-5-(7′-fluoro-3′-methyl-2′-oxo-2′,3′-dihydrospiro[cyclobulane-1,1′-pyrrolo[2,3-c]quinolin]-8′-yl)pyridin-3-yl)methanesulfonamide hydrochloride]
1 to 100 nM | 0.5 to 1 nM | CCS(=O)(=O)Nc1cc(-c2ccc3ncc4c(c3c2)C2(CCC2)C(=O)N4C)cnc1N1CC(N(C)C)C1 [Example 318, N-(2-(3-(Dimethylamino)azetidin-1-yl)-5-(3′-methyl-2′-oxo-2′,3′-dihydrospiro [cyclobulane-1,1′-pyrrolo[2,3-c]quinolin]-8′-yl)pyridin-3-yl)etlianesulfonamide]
1 to 100 nM | 1 to 100 nM | CN1C(=O)C2(CCC2)c2c1cnc1cc(F)c(-c3cnc(N4CC(N(C)C)C4)c(NS(=O)(=O)C4CC4)c3)cc21 [Example 319, N-(2-(3-(Dimethylamino)azetidin-1-yl)-5-(7′-fluoro-3′-methyl-2′-oxo-2′,3′-dihydrospiro[cyclobulane-1,1′-pyrrolo[2,3-c]quinolin]-8′-yl)pyridin-3-yl)cyclopropanesulfonamide hydrochloride]
